From PMC3025057 (Experimental parasitology, 2010)

Molecular target: Trypanosoma brucei hexokinase 1 (TbHK1) (Trypanosoma brucei, UniProt Q38C42)
Experiment: G6PDH-coupled hexokinase assay with recombinant enzyme
Assay type: biochemical

**Q.** With O=c1c(O)c(-c2ccc(O)c(O)c2)oc2cc(O)cc(O)c12 [QCN, 3,3′,4′,5,7-pentahydroxyflavone] as the molecule, how does the Ki read?
**A.** 2900 ± 900 nM
